According to patent US20100261246A1, “METHOD FOR INHIBITING TELOMERASE REACTION” (PANASONIC CORPORATION, priority 2009, published 2010):

Experiments:
telomerase = test: Telomerase reaction carried out first, then PCR of the diluted reaction solution, gel electrophoresis, with or without λDNA; format: biochemical; settings: final concentrations 0.1 to 10 μM
Procedure: (§1) Moreover, effects of inhibiting telomerase by TMPyP and anionic phthalocyanines were compared in Comparative Example 3 and Example 4 to 5 below. In these experiments, the S7700 kit was used similarly to the aforementioned Comparative Examples 1 to 2 and Examples 1 to 3. However, in Comparative Examples 1 to 2 and Examples 1 to 3 described above, the reagents required only for the telomerase reaction and PCR were all mixed first, and the telomerase reaction and PCR were carried out sequentially by regulating the reaction temperature. To the contrary, in the following Comparative Example 3 and Examples 4 to 5, only the reagents required for the telomerase reaction were first mixed to carry out a telomerase reaction, and a part of the reaction solution and the reagents required for the PCR were mixed to carry out the PCR.
In addition, in each of the following Comparative Example 3 and Examples 4 to 5, experiments were carried out with or without addition of a λDNA in the telomerase reaction. Addition of the λDNA was intended to reproduce for mimicking the conditions in which a large amount of double-stranded DNAs are present as in the case of genomic DNAs in cells, and to study the effects of inhibiting telomerase by TMPyP or anionic phthalocyanines even under conditions more approximate to those in vivo, by adding a λDNA.
Telomerase reaction solution in a total volume of 10 μL were prepared by mixing 1 μL of 10× TRAP Reaction buffer, 0.2 μL of 50× dNTP Mix, 0.2 μL of TS primer, 4 μL of the telomerase solution prepared in Comparative Example 1, 2 μL of the TMPyP aqueous solution, and 2.6 μL of milliQ water (the reaction solutions having final TMPyP concentrations of 0 M, 0.1 μM, 0.3 μM, 1 μM, 3 μM and 10 μM were prepared, respectively). Then, the reaction solutions were stood under a condition of 30° C. for 60 min to allow a telomerase reaction to be carried out.
(§2) Next, 4 μL of a solution prepared by diluting the solution after the telomerase reaction 20 times with milliQ water, 0.2 μL of 50× dNTP Mix, 0.2 μL of TS primer, 0.2 μL of Primer Mix, 0.1 μL of TaKaLa LA Taq Hot Start Version (manufactured by Takara Bio Inc.), 1 μL of 10× LA PCR buffer II (Mg^2+ plus) (buffer solution included in TaKaLa LA Taq Hot Start Version), and 4.3 μL of milliQ water were mixed to prepare a PCR solution in a total volume of 10 μL. Then, PCR was carried out by allowing this PCR solution to stand under temperature conditions in which a thermo cycle of: 30 sec at 95° C.; 30 sec at 59° C.; and 30 sec at 72° C. was repeated 30 times.
(§3) Finally, the solution after the PCR was electrophoresed on a 10% polyacrylamide gel, and stained with GelStar Nucleic Acid Stain (manufactured by Takara Bio Inc.). […] In the order from the leftmost lane, the results with final concentrations of TMPyP being 0 M, 0.1 μM, 0.3 μM, 1 μM, 3 μM and 10 μM are shown.
On the other hand, experiments in which a λDNA was added to the telomerase reaction solution were also carried out. More specifically, in preparing the telomerase reaction solution described above, 2.6 μL of a λDNA solution (manufactured by Takara Bio Inc.) was mixed in place of mixing 2.6 μL of milliQ water. Other telomerase reaction temperature/time schedule, PCR solution preparation condition, PCR temperature/time schedule, electrophoresis condition were just the same.

[1] = tested on: TaKaLa LA Taq Hot Start Version (polymerase reaction); test: PCR control band in the separate telomerase reaction / PCR experiment; format: biochemical; settings: 10 μM, no addition of λDNA
Procedure: as §1, §2, §3

single-stranded DNA = test: Absorbance 480 to 800 nm of phthalocyanine mixed with single-stranded DNA solution; format: binding; settings: 15 μM compound solution, DNA 50 μM, pH7
Procedure: A solution of 50 mM HEPES and 100 mM NaCl, pH7 (total volume: 100 μL) containing a single-stranded DNA consisting of a sequence of 5′-[…]-3′ sequence (SEQ ID NO: 3) at a concentration of 50 μM was prepared, which was incubated at 90° C. for 5 min, and thereafter cooled to 0° C. at a rate of temperature fall of 2° C./min, followed by finally incubating at 0° C. for 2 hrs. The DNA in thus resulting solution was a single-stranded DNA even after the incubation (hereafter, the solution referred to as “single-stranded DNA solution”).
(§4) Next, the aforementioned CuPC solution and single-stranded DNA solution, and the aforementioned CuPC solution and double-stranded DNA solution were similarly mixed, respectively. And then the absorbance of these liquid mixtures was measured at 480 to 800 nm. FIG. 9(A) and FIG. 9(B) show the results of the measurement in the cases of the single-stranded DNA solution and the double-stranded DNA solution, respectively.
as §4, with “NiPC” for “CuPC”, “respectively;” for “respectively. And then”, “11(A)” for “9(A)”, “11(B)” for “9(B)”, “respectively. In each drawing, the result obtained when the NC solution was used is also shown together.” for “respectively.”
as §4, with “PC” for “CuPC”, “respectively;” for “respectively. And then”, “mixture” for “mixtures”, “13(A)” for “9(A)”, “13(B)” for “9(B)”, “respectively. In each drawing, the result obtained when the NC solution was used is also shown together.” for “respectively.”
as §4, with “CoPC” for “CuPC”, “respectively, and” for “respectively. And”, “15(A)” for “9(A)”, “15(B)” for “9(B)”, “respectively. In each drawing, the result obtained when the NC solution was used is also shown together.” for “respectively.”

double-stranded DNA = test: Absorbance 480 to 800 nm of phthalocyanine mixed with double-stranded DNA solution; format: binding; settings: 15 μM compound solution, DNA 50 μM, pH7
Procedure: A solution of 50 mM HEPES and 100 mM NaCl, pH7 (total volume: 100 μL) containing a single-stranded DNA consisting of a sequence of 5′-AGAAGAGAAAGA-3′ (SEQ ID NO: 4) and a single-stranded DNA consisting of a sequence of 5′-TCTTTCTCTTCT-3′ (SEQ ID NO: 5) at each concentration of 50 μM was prepared, which was incubated at 90° C. for 5 min, and thereafter cooled to 0° C. at a rate of temperature fall of 2° C./min, followed by finally incubating at 0° C. for 2 hrs. Since the aforementioned two kinds of DNAs are complementary to one another, both DNAs form a double-stranded DNA in the solution as a result of the incubation (hereafter, the solution referred to as “double-stranded DNA solution”).
as §4
as §4, with “NiPC” for “CuPC”, “respectively;” for “respectively. And then”, “11(A)” for “9(A)”, “11(B)” for “9(B)”, “respectively. In each drawing, the result obtained when the NC solution was used is also shown together.” for “respectively.”
as §4, with “PC” for “CuPC”, “respectively;” for “respectively. And then”, “mixture” for “mixtures”, “13(A)” for “9(A)”, “13(B)” for “9(B)”, “respectively. In each drawing, the result obtained when the NC solution was used is also shown together.” for “respectively.”
as §4, with “CoPC” for “CuPC”, “respectively, and” for “respectively. And”, “15(A)” for “9(A)”, “15(B)” for “9(B)”, “respectively. In each drawing, the result obtained when the NC solution was used is also shown together.” for “respectively.”

telomerase, sequence (O14746 whole entry): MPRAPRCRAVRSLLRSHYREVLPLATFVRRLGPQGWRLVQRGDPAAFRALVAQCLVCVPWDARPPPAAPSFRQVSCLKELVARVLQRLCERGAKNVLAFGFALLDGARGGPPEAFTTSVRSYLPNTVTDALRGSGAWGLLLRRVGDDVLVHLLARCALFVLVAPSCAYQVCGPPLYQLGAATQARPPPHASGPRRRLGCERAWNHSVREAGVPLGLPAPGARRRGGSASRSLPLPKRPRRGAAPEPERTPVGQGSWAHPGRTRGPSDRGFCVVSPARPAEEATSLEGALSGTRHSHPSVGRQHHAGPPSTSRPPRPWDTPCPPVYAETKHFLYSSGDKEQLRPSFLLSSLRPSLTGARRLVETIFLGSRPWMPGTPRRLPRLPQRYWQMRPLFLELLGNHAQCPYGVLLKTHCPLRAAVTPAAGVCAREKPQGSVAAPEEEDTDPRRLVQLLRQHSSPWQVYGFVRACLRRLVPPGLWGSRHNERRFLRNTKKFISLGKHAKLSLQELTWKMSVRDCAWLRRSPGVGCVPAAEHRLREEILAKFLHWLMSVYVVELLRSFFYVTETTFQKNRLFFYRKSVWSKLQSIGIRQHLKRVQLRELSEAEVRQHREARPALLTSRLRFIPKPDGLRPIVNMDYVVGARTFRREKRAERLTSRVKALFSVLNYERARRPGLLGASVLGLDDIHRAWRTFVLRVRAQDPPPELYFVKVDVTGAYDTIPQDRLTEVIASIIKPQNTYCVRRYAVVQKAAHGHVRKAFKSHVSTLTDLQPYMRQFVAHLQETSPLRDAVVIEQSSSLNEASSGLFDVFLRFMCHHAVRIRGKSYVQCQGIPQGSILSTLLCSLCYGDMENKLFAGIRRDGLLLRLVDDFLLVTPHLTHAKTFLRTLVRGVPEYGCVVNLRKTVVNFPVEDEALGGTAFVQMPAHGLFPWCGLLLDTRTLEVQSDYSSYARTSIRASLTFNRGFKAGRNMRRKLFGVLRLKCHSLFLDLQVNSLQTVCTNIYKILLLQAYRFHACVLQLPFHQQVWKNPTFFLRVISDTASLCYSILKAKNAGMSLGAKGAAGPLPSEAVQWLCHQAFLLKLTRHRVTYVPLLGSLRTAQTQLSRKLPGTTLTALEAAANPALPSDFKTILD

Row | Substance | inhibition of the telomerase reaction (band of telomerase reaction product) (telomerase; in the presence of λDNA) | inhibition of the telomerase reaction (band of telomerase reaction product) (telomerase; no addition of λDNA) | amplification of the PCR control (band) [1] | interaction with the single-stranded DNA (absorption spectrum vs NC solution) (single-stranded DNA) | interaction with the double-stranded DNA (absorption spectrum vs NC solution) (double-stranded DNA)
1 | Copper(II) phthalocyanine-3,4′,4″,4′″-tetrasulfonic acid tetrasodium salt [CuPC] | can efficiently inhibit the telomerase reaction | inhibited with higher concentration | not inhibited | an interaction did not occur | an interaction did not occur
2 | Nickel(II) phthalocyanine tetrasulfonic acid tetrasodium salt [NiPC] | can efficiently inhibit the telomerase reaction | inhibited with higher concentration | not inhibited | an interaction did not occur | an interaction did not occur
